Measured values from patent US8551947B2, “Treatment of hibernating myocardium with an exendin peptide” (Amylin Pharmaceuticals, LLC, priority 2000, dated 2013).
No end group written: not given here.

How the values were obtained:
[1] = test system: pancreas; conditions: cited from earlier work
[2] = test system: HM dog model (pacing-induced heart failure); assay: Paced dog model of hibernating myocardium: 48 h i.v. infusion, plasma catecholamines and hemodynamics; assay type: in vivo, Beagle dogs; conditions: for LV contractility (dP/dt) restored to: Dog A (FIG. 1); for LV ejection fraction (LVEF) improved to: Dog A (FIG. 2); for LV wall thickening: Dog A (FIG. 3); for Cardiac output (CO): Dog A (FIG. 4); for CBF (coronary blood flow) / LVEDP (LV end-diastolic pressure) / LVP (left ventricular pressure) / MVO2 (myocardial oxygen consumption) / dP/dt (left ventricular contractility) / NE (plasma norepinepherine): GLP-1 group
Text: The “paced dog” model, used in the Example below, provides a system to study NM, because the exertion of the heart exceeds the heart's ability to respond, which creates an energy-limited situation. Other suitable animal models are available to study chronically dysfunctional viable myocardium, in dogs and pigs, for example, which allow laboratory study of therapeutic regimens. […] Canty a al., Am. J. Physiol, 277; H417-H422 (1999). Similar animal models in diabetic dogs, mice and rats are available for the study of DCM. Bell (1995); Fein (1990).
Beagle dogs were fitted with telemetry devices that permit tong-term ambulatory data collection in conscious animals. These devices measured LV pressure, myocardial oxygen consumption (MVO2, an expression of myocardial efficiency), coronary flow (CBF), and cardiac output (CO). The dogs were “paced,” such that heart rate was forced up to about 240 beats per minute, for 3-4 weeks, which induces moderate HM in a predictable manner. This HM dog model is an accepted model for assessing the effectiveness of treatments for HM. Kiuchi et al., “Myocardial beta-adrenergic receptor function during the development of pacing-induced heart failure.” J. Clin. Invest. 91: 907-914 (1993).
During the treatment period, “pacing” was discontinued. Plasma catecholamines were assessed before and after infusion, along with LV pressures, coronary and systemic hemodynamics, and MVO2.

[3] = 48 h i.v. infusion 1.5 pmol/kg/min, after vs before
[4] = AFTER 48 h i.v. infusion 1.5 pmol/kg/min

Glu Gly Thr Phe Thr Ser Asp Val Ser Ser Tyr Leu Glu Gly Gln Ala Ala Lys Glu Phe Ile Ala Trp Lau Val Lys Gly Arg Gly (EGTFTSDVSSYLEGQAAKEFIAWLVKGRG; not fully specified; printed as Glu Gly Thr Phe Thr Ser Asp Val Ser Ser Tyr Leu Glu Gly Gln Ala Ala Lys Glu Phe Ile Ala Trp Lau Val Lys Gly Arg Gly) [SEQ ID NO:5]
stimulation of production or release of insulin from the pancreas [1]: do not stimulate production or release of insulin

Glu Gly Thr Phe Thr Ser Asp Val Ser Ser Tyr Leu Glu Gly Gln Ala Ala Lys Glu Phe Ile Ala Trp Leu Val Lys Gly Arg (NH2) (EGTFTSDVSSYLEGQAAKEFIAWLVKGR-NH2) [SEQ ID NO:6]
stimulation of production or release of insulin from the pancreas [1]: do not stimulate production or release of insulin

rGLP-1 (7-36) amide
Effect of treatment on LV end-diastolic pressure (LVEDP), in words [2, 3]: significantly decreasing | Effect of treatment on cardiac output (CO), in words [2, 3]: significantly (*p<0.05) increased | Effect of treatment on coronary blood flow (CBF), in words [2, 3]: significantly (*p<0.05) increased | Effect of treatment on left ventricular contractility (LV dP/dt), in words [2, 3]: significantly (*p<0.05) increased | Effect of treatment on left ventricular pressure (LVP), in words [2, 3]: significantly (*p<0.05) increased | Effect of treatment on myocardial oxygen consumption (MVO2), in words [2, 3]: significantly (*p<0.05) increased | LV contractility (dP/dt) restored to ([2]; 24 hours of treatment, pacing had reduced contractility by 60%): 80 % of baseline | LV contractility (dP/dt) restored to ([2]; 48 hours of treatment): 90 % of baseline | LV ejection fraction (LVEF) improved to ([2]; 24 hours of treatment, pacing had reduced LVEF by 40%): 88 % of the baseline value | LV ejection fraction (LVEF) improved to ([2]; 48 hours of treatment): 95 % of the baseline value | LV wall thickening ([2]; 24 hours of treatment, pacing had reduced wall thickening by 20%): recovered | LV wall thickening ([2]; 48 hours of treatment): 147 % of the baseline value | Cardiac output (CO) ([2]; 24 hours of treatment, pacing had reduced CO by 30%): restored to baseline levels | Cardiac output (CO) ([2]; 48 hours of treatment): 116 % of baseline | CBF (coronary blood flow) [2, 4]: 37 ± 3 mL/min | LVEDP (LV end-diastolic pressure) [2, 4]: 15 ± 1 mm Hg | LVP (left ventricular pressure) [2, 4]: 108 ± 2 mm Hg | MVO2 (myocardial oxygen consumption) [2, 4]: 297 ± 16 ml O2/min | dP/dt (left ventricular contractility) [2, 4]: 2212 ± 86 mm Hg/s | NE (plasma norepinepherine) ([2]; AFTER 48 h i.v. infusion 1.5 pmol/kg/min, *p<0.05): 1.62 ± 0.11* nmol/ml | NE (plasma norepinepherine) ([2]; AFTER 48 h i.v. infusion 1.5 pmol/kg/min, *p<0.05, listed as CLP-1): 1.62 ± 0.11 nmol/mL | CBF (coronary blood flow) ([2]; BEFORE infusion): 27 ± 1 mL/min | LVEDP (LV end-diastolic pressure) ([2]; BEFORE infusion): 25 ± 1 mm Hg | LVP (left ventricular pressure) ([2]; BEFORE infusion): 98 ± 2 mm Hg | MVO2 (myocardial oxygen consumption) ([2]; BEFORE infusion): 246 ± 18 ml O2/min | dP/dt (left ventricular contractility) ([2]; BEFORE infusion): 1127 ± 86 mm Hg/s | NE (plasma norepinepherine) ([2]; BEFORE infusion (after 3-4 weeks pacing), five dogs): 2.30 ± 0.15 nmol/mL | NE (plasma norepinepherine) ([2]; BEFORE infusion (after 3-4 weeks pacing), five dogs, listed as CLP-1): 2.30 ± 0.15 nmol/mL
